Target: T1, human CCR6 (Homo sapiens, UniProt P51684)
T1 construct: expressed in transfected cells; host or cells: HEK-293
T1 sequence (P51684 1-374): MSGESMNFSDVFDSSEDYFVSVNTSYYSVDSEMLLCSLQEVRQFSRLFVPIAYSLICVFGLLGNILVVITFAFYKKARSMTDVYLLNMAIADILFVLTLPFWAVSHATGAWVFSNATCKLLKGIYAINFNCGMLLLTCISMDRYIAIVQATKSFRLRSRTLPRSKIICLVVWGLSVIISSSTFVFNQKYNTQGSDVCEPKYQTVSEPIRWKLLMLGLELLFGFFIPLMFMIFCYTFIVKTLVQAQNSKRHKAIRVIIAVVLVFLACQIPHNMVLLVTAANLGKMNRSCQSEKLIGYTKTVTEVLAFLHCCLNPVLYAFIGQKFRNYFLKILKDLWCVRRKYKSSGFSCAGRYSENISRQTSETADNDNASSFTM
Experiment: FLIPR assay (inhibition of CCL20-induced calcium signal)
Assay type: cell-based
Details: HEK-293 cells expressing human CCR6; mean values where determined several times; read-out: FLIPR IC50
In short: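 IC50 values come from baseline-corrected peak calcium fluorescence after agonist. The agonist was CCL20 at 10 nM final, added to engineered human CCR6 HEK-293 cells following a 30-min, room-temperature, dark preincubation with serially diluted compound. Readings were taken in a fluorometric imaging plate reader.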

| SMILES | IC50 [nM] |
| --- | --- |
| CC(=O)N1CCC(C(O)C#Cc2cncc([C@@](O)(c3ccc(C(C)C)cc3)C3(C)CN(C)C3)c2)CC1 (stereo partly shown) [Example 599] | 149 |
| CC(=O)N1CCC(C)(C(O)C#Cc2cncc([C@@](O)(c3ccc(C(C)C)cc3)C3(C)CN(C)C3)c2)CC1 (stereo partly shown) [Example 601] | 75.5 |
| CC(C)c1ccc([C@](O)(c2cncc(C#CC3(S(N)(=O)=O)CC3)c2)C2(C)CN(C)C2)cc1 [Example 607] | 104 |
| CC(C)c1ccc([C@](O)(c2cncc(C#CC3(O)CCOc4cccnc43)c2)C2(C)CN(C)C2)cc1 (stereo partly shown) [Example 611] | 74.9 |
| CC(C)c1ccc([C@](O)(c2cncc(C#CC3(O)C(=O)N(C)c4ccccc43)c2)C2(C)CN(C)C2)cc1 (stereo partly shown) [Example 612] | 58.5 |
| CC(C)c1ccc([C@](O)(c2cncc(C#CC(C)(O)c3n[nH]c4ccccc34)c2)C2(C)CN(C)C2)cc1 (stereo partly shown) [Example 613] | 11.1 |
| CC(C)c1ccc([C@](O)(c2cncc(C#CC(C)(O)c3nn(C)c4ccccc34)c2)C2(C)CN(C)C2)cc1 (stereo partly shown) [Example 614] | 12.6 |
| CC(C)c1ccc([C@](O)(c2cncc(C#CC(C)(O)c3cc(C(F)(F)F)ncn3)c2)C2(C)CN(C)C2)cc1 (stereo partly shown) [Example 632] | 14.1 |
| CC(C)c1ccc([C@](O)(c2cncc(C#CC(C)(O)c3cc(C(F)F)ncn3)c2)C2(C)CN(C)C2)cc1 (stereo partly shown) [Example 633] | 42.5 |
| CC(C)c1ccc([C@](O)(c2cncc(C#CC3(c4ccccn4)CC3)c2)C2(C)CN(C)C2)cc1 [Example 634] | 40.6 |
| Cc1cc(C2(C#Cc3cncc([C@@](O)(c4ccc(C(C)C)cc4)C4(C)CN(C)C4)c3)CC2)ncn1 [Example 635] | 23.2 |
| CC(=O)N1CCC(CCc2cncc([C@@](O)(c3ccc(C(C)C)cc3)C3(C)CN(C)C3)c2)CC1 [Example 636] | 107 |
| CC(C)c1ccc([C@](O)(c2cncc(CCC(C)(O)C(F)(F)F)c2)C2(C)CN(C)C2)cc1 (stereo partly shown) [Example 637] | 46.3 |
| CC(C)c1ccc([C@](O)(c2cncc(CCC(C)(O)c3n[nH]c4ccccc34)c2)C2(C)CN(C)C2)cc1 (stereo partly shown) [Example 643] | 16.9 |
| CC(C)c1ccc([C@](O)(c2cncc(CCC(C)(O)c3ccn(C4CC4)n3)c2)C2(C)CN(C)C2)cc1 (stereo partly shown) [Example 644] | 147 |
| Cc1nccc(C(C)(O)CCc2cncc([C@@](O)(c3ccc(C(C)C)cc3)C3(C)CN(C)C3)c2)n1 (stereo partly shown) [Example 645] | 110 |
| Cc1cnc(C(C)(O)CCc2cncc([C@@](O)(c3ccc(C(C)C)cc3)C3(C)CN(C)C3)c2)cn1 (stereo partly shown) [Example 646] | 129 |
| Cc1ncc(C(C)(O)CCc2cncc([C@@](O)(c3ccc(C(C)C)cc3)C3(C)CN(C)C3)c2)s1 (stereo partly shown) [Example 647] | 76.3 |
| Cc1cccc(C(C)(O)C#Cc2cncc([C@@](O)(c3ccc(C4(C(F)(F)F)CC4)cc3)C3(C)CN(C)C3)c2)n1 (stereo partly shown) [Example 654] | 46.2 |
| Cc1cccc(C(C)(O)C#Cc2cncc([C@@](O)(c3ccc(C4(C)CC4)cc3)C3(C)CN(C)C3)c2)n1 (stereo partly shown) [Example 655] | 55 |
| Cc1cccc(C(C)(O)C#Cc2cncc([C@@](O)(c3ccc(C(F)(F)F)cc3)C3(C)CN(C)C3)c2)n1 (stereo partly shown) [Example 656] | 208 |
| CCc1ccc([C@](O)(c2cncc(C#CC(C)(O)c3cccc(C)n3)c2)C2(C)CN(C)C2)cc1 (stereo partly shown) [Example 657] | 86.6 |
| Cc1cccc(C(C)(O)C#Cc2cncc([C@@](O)(c3ccc(C(C)(C)C)cc3)C3(C)CN(C)C3)c2)n1 (stereo partly shown) [Example 658] | 86.6 |
| CCC1([C@](O)(c2ccc(OC(F)(F)F)cc2)c2cncc(C#CC(C)(O)c3cccc(C)n3)c2)CN(C)C1 (stereo partly shown) [Example 659] | 344 |
| Cc1cccc(C(C)(O)C#Cc2cncc([C@@](O)(c3ccc(CC(F)(F)F)cc3)C3(C)CN(C)C3)c2)n1 (stereo partly shown) [Example 660] | 82.4 |
| Cc1cccc(C(C)(O)C#Cc2cncc([C@@](O)(c3ccc(C(C)C)cc3)C3(F)CN(C)C3)c2)n1 (stereo partly shown) [Example 661] | 54.3 |
| Cc1cccc(C(C)(O)C#Cc2cncc([C@@](O)(c3ccc(C(C)C)cc3)C3(C)CN(C(C)C)C3)c2)n1 (stereo partly shown) [Example 665] | 40.4 |
| Cc1cccc(C(C)(O)C#Cc2cncc([C@@](O)(c3ccc(C(C)C)cc3)C3(C)CN(CCO)C3)c2)n1 (stereo partly shown) [Example 667] | 52.4 |
| Cc1cccc(C(C)(O)C#Cc2cncc([C@@](O)(c3ccc(C(C)C)cc3)C3(C)CN(CC(F)F)C3)c2)n1 (stereo partly shown) [Example 668] | 101 |
| CC(=O)N1CCC(COc2cncc([C@@](O)(c3ccc(C(C)C)cc3)C3(C)CN(C)C3)c2)CC1 [Example 669, 1-(4-{5-[(R)-(1,3-Dimethyl-azetidin-3-yl)-hydroxy-(4-isopropyl-phenyl)-methyl]-pyridin-3-yloxymethyl}-piperidin-1-yl)-ethanone] | 62.1 |

Next, values leading:

| IC50 [nM] | SMILES |
| --- | --- |
| 45.4 | CC(C)c1ccc([C@](O)(c2cncc(C#CC(C)(C)N3CCNC3=O)c2)C2(C)CN(C)C2)cc1 [Example 594] |
| 93.2 | CC(C)c1ccc([C@](O)(c2cncc(C#CC3(N4CCOC4=O)CC3)c2)C2(C)CN(C)C2)cc1 [Example 595] |
| 117 | CC(=O)N1CCC[C@]1(C)C#Cc1cncc([C@@](O)(c2ccc(C(C)C)cc2)C2(C)CN(C)C2)c1 [Example 596] |
| 395 | CC(=O)N1CCC(O)(C#Cc2cncc([C@@](O)(c3ccc(C(C)C)cc3)C3(C)CN(C)C3)c2)CC1 [Example 597] |
| 94.8 | CC(=O)N1CCC(C(C)(O)C#Cc2cncc([C@@](O)(c3ccc(C(C)C)cc3)C3(C)CN(C)C3)c2)CC1 (stereo partly shown) [Example 598] |
| 45.7 | CC(=O)N1CCC(CC#Cc2cncc([C@@](O)(c3ccc(C(C)C)cc3)C3(C)CN(C)C3)c2)CC1 [Example 600] |
| 39.5 | CC(=O)N1CCC(C)(C#Cc2cncc([C@@](O)(c3ccc(C(C)C)cc3)C3(C)CN(C)C3)c2)CC1 [Example 602] |
| 31.2 | CC(C)c1ccc([C@](O)(c2cncc(C#CC3CCN(S(C)(=O)=O)CC3)c2)C2(C)CN(C)C2)cc1 [Example 603] |
| 18.9 | CNS(=O)(=O)N1CCC(C)(C#Cc2cncc([C@@](O)(c3ccc(C(C)C)cc3)C3(C)CN(C)C3)c2)CC1 [Example 604] |
| 78.6 | CC(C)c1ccc([C@](O)(c2cncc(C#CC(C)(C)S(C)(=O)=O)c2)C2(C)CN(C)C2)cc1 [Example 605] |
| 22.6 | CC(C)c1ccc([C@](O)(c2cncc(C#CC3(S(=O)(=O)N(C)C)CC3)c2)C2(C)CN(C)C2)cc1 [Example 606] |
| 43.5 | CC(C)c1ccc([C@](O)(c2cncc(C#CC(C)(C)S(=O)(=O)C3CC3)c2)C2(C)CN(C)C2)cc1 [Example 608] |
| 656 | CC(C)c1ccc([C@](O)(c2cncc(C#C[C@]3(O)CCN(C)C3=O)c2)C2(C)CN(C)C2)cc1 [Example 609] |
| 426 | CC(C)c1ccc([C@](O)(c2cncc(C#C[C@@]3(O)CCN(C)C3=O)c2)C2(C)CN(C)C2)cc1 [Example 610] |
| 102 | Cc1nccc(C(C)(O)C#Cc2cncc([C@@](O)(c3ccc(C(C)C)cc3)C3(C)CN(C)C3)c2)n1 (stereo partly shown) [Example 616] |
| 53.5 | Cc1cnc(C(C)(O)C#Cc2cncc([C@@](O)(c3ccc(C(C)C)cc3)C3(C)CN(C)C3)c2)cn1 (stereo partly shown) [Example 617] |

| IC50 [nM] | SMILES |
| --- | --- |
| 23.3 | Cc1ncc(C(C)(O)C#Cc2cncc([C@@](O)(c3ccc(C(C)C)cc3)C3(C)CN(C)C3)c2)s1 (stereo partly shown) [Example 618] |
| 68.8 | CC(C)c1ccc([C@](O)(c2cncc(C#CC(C)(O)c3cc(C4CC4)ncn3)c2)C2(C)CN(C)C2)cc1 (stereo partly shown) [Example 619] |
| 235 | CC(=O)NC(C)(C)C#Cc1cncc([C@@](O)(c2ccc(C(C)C)cc2)C2(C)CN(C)C2)c1 [Example 621] |
| 509 | CC(C)c1ccc([C@](O)(c2cncc(CCC(C)(C)N3CCOC3=O)c2)C2(C)CN(C)C2)cc1 [Example 638] |
| 96.6 | CC(C)c1ccc([C@](O)(c2cncc(CCC(C)(C)N3CCCC3=O)c2)C2(C)CN(C)C2)cc1 [Example 639] |
| 169 | CC(C)c1ccc([C@](O)(c2cncc(CCC(C)(C)N3CCN(C)C3=O)c2)C2(C)CN(C)C2)cc1 [Example 640] |
| 67 | CC(C)c1ccc([C@](O)(c2cncc(CCC(C)(C)N3CCNC3=O)c2)C2(C)CN(C)C2)cc1 [Example 641] |
| 277 | CC(=O)N1CCC[C@]1(C)CCc1cncc([C@@](O)(c2ccc(C(C)C)cc2)C2(C)CN(C)C2)c1 [Example 642] |
| 46.6 | Cc1cc(C(C)(O)C#Cc2cncc([C@@](O)(c3ccc(C(C)C)cc3)C3(C)CN(C)C3)c2)on1 (stereo partly shown) [Example 648] |
| 185 | CC(C)c1ccc([C@](O)(c2cncc(C#CC(C)(O)c3nccn3C)c2)C2(C)CN(C)C2)cc1 (stereo partly shown) [Example 649] |
| 15.9 | Cc1ccc(C(C)(O)C#Cc2cncc([C@@](O)(c3ccc(C(C)C)cc3)C3(C)CN(C)C3)c2)s1 (stereo partly shown) [Example 650] |
| 16.1 | CC(C)c1ccc([C@](O)(c2cncc(C#CC(C)(O)c3cccn3C)c2)C2(C)CN(C)C2)cc1 (stereo partly shown) [Example 651] |
| 331 | CC(=O)N1CCC(C#Cc2cc([C@@](O)(c3ccc(C(C)C)cc3)C3(C)CN(C)C3)cnn2)CC1 [Example 662] |
| 992 | CC(=O)NC(C)(C)C#Cc1cc([C@@](O)(c2ccc(C(C)C)cc2)C2(C)CN(C)C2)cnn1 [Example 663] |
| 211 | CC(C)c1ccc([C@](O)(c2cnnc(C#CC(C)(C)N3CCCC3=O)c2)C2(C)CN(C)C2)cc1 [Example 664] |
